Here are results for 11 molecules from ChEMBL document CHEMBL1201862, “PubChem BioAssay data set” (2004).

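Step 1: Grow cells in 96-well plates. Step 2: Expose to compound for 48 hours at 5 concentrations. Step 3: Interpolate endpoints linearly; if unreached, use highest concentration. GI50 marks 50% less growth.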 The source made the active and inactive calls. No stated cut-off is given here; in the data, active = GI50 up to about 1.1 µM and inactive = higher. Where a SMILES comes first, the peptide text is derived from it. [ ]: non-standard residue; d: D form. The star is where a group is joined. Phe(4-NO2) = N[CH](Cc1ccc([N+](=O)[O-])cc1)C(=O)O; Cbz = O=C(OCc1ccccc1)*

Holding throughout (assay): growth of human tumour cells (NCI), 48 h
In assay [1] the test system is CCRF-CEM.
Assay [2] has as its system HCC 2998.
Assay [3] has as its system Hs-578T.
The subject of assay [4] is MDA-MB-231.
The test system of assay [5] is MDA-N.
Assay [6] has as its system MOLT-4.
The subject of assay [7] is NCI-H226.
The test system of assay [8] is NCI-H460.
The test system of assay [9] is OVCAR-3.
Assay [10] deals with OVCAR-5.
For assay [11], the system named is RXF 393.
For assay [12], the system named is SF-295.
In assay [13] the test system is SF-539.
In assay [14] the test system is SK-MEL-2.
In assay [15] the test system is SK-OV-3.
Assay [16] deals with SN12C.
Assay [17] deals with SW-620.
Assay [18] concerns T47D.
Assay [19] relates to TK-10.
The test system of assay [20] is NCI-H522.

In the case of `COc1cc(/C=N/n2c(C)n[nH]c2=O)cc(OC)c1OC`, the GI50 in assay [1] was 89.5 µM (inactive); in assay [2], > 100 µM (inactive); in assay [3], 0.583 µM (active); in [4], 57.5 µM (inactive); in [5], > 100 µM (inactive); in assay [6], > 100 µM (inactive). Further, the GI50 in assay [7] was > 100 µM (inactive); in assay [8] it was > 100 µM (inactive); in assay [9], 51.4 µM (inactive); in assay [10], 80.5 µM (inactive); in [11] it was 27.4 µM (inactive); in [12], > 100 µM (inactive). For the same molecule, the GI50 in [13] is > 100 µM (inactive); in [14], > 100 µM (inactive); in assay [15], > 100 µM (inactive); in [16], > 100 µM (inactive); in assay [17], > 100 µM (inactive); in assay [18], 71.3 µM (inactive).

Take `Cc1cc(O)cc(O)c1C(=O)O[C@]1(C)C(=O)C=C2C=C(/C=C/C(=O)O)OC=C2C1=O`: the GI50 in assay [1] is 38.5 µM (inactive); in assay [2], > 100 µM (inactive); in assay [3] it was > 100 µM (inactive); in assay [4], > 100 µM (inactive); in assay [5], > 100 µM (inactive); in assay [6], 60.8 µM (inactive). The GI50 in assay [7], in assay [8], in [9], in [10], in assay [11] and in [12] was > 100 µM (inactive) throughout. For the same molecule, the GI50 is > 100 µM (inactive) in assay [13]; > 100 µM (inactive) in assay [14]; > 100 µM (inactive) in assay [15]; > 100 µM (inactive) in assay [16]; 58.3 µM (inactive) in assay [17]; > 100 µM (inactive) in [18]. Also, in [19], the GI50 is 45.6 µM (inactive).

For `N#Cc1nc2cc(Cl)ccc2nc1N1CCN(c2ccc([N+](=O)[O-])cc2)CC1`, the GI50 in assay [2] was 18.9 µM (inactive); in [3], > 100 µM (inactive); in assay [4], > 100 µM (inactive); in assay [5], > 100 µM (inactive); in assay [6] it was > 100 µM (inactive); in assay [8], > 100 µM (inactive). For the same molecule, the GI50 in assay [9], in assay [10], in [11], in assay [12], in [13] and in assay [15] was > 100 µM (inactive) in each case. The GI50 in assay [16], in assay [17], in assay [18] and in assay [19] was > 100 µM (inactive) in each case.

Regarding `COc1ccc(C(=O)/C=C/c2ccc(OCCCOc3ccc(/C=C/C(=O)c4ccc(OC)c(OC)c4)cc3)cc2)cc1OC`, the GI50 in assay [1], in assay [2], in [3], in assay [4], in assay [5] and in assay [6] was > 100 µM (inactive) each time. Also, the GI50 in [7], in [8], in assay [11], in assay [12], in [13] and in [14] was > 100 µM (inactive) throughout. The GI50 in assay [15], in assay [16], in assay [17], in [18] and in assay [19] was > 100 µM (inactive) throughout.

In the case of `COc1ccc(-c2c3c(n(C4OC(CO)C(O)C(O)C4O)c(=S)c2C#N)CCC3)cc1` (configuration not stated), the GI50 in assay [1] was 32.6 µM (inactive); in assay [2] it was 66.2 µM (inactive); in [3] it was 38.7 µM (inactive); in [4], > 100 µM (inactive); in [5], 53.8 µM (inactive); in assay [6] it was 28.8 µM (inactive). In addition, the GI50 in [8] is 45.2 µM (inactive); in assay [9] it was 25.7 µM (inactive); in assay [10], 74.6 µM (inactive); in [11], 22.4 µM (inactive); in assay [12] it was 31.9 µM (inactive); in assay [13], 20.4 µM (inactive). Moreover, the GI50 is 58.5 µM (inactive) in assay [14]; 91.4 µM (inactive) in assay [15]; 37 µM (inactive) in assay [16]; 71.9 µM (inactive) in assay [17]; 44.9 µM (inactive) in assay [18]; > 100 µM (inactive) in [19].

In the case of `CCCCCCOP(=O)(OCCCCCC)OC(C(=O)OC)C(F)(F)F` (configuration not stated), the GI50 in assay [1], in assay [2], in [3], in assay [4], in [5] and in assay [6] was > 100 µM (inactive) in each case. Further, the GI50 in assay [7], in assay [20], in [9], in [10], in [12] and in assay [13] was > 100 µM (inactive) throughout. The GI50 in assay [14], in assay [15], in assay [16], in assay [17], in [18] and in assay [19] was > 100 µM (inactive) each time.

Turning to `CC1C(c2ccc3c(c2)OCO3)c2cc3c(cc2OC1N1CCCC1)OCO3` (configuration not stated), the GI50 in assay [1] is 26.4 µM (inactive); in [2], 17.8 µM (inactive); in [3], 10.6 µM (inactive); in [5], 16.1 µM (inactive); in assay [6], 27.4 µM (inactive); in assay [8], 34.4 µM (inactive). Further, the GI50 in assay [20] is 18 µM (inactive); in assay [9] it was 25.8 µM (inactive); in assay [10] it was 61.4 µM (inactive); in assay [12], 24 µM (inactive); in assay [13] it was 16.1 µM (inactive); in assay [14], 31.3 µM (inactive). Also, the GI50 is 39.6 µM (inactive) in assay [16], 32.5 µM (inactive) in assay [17], 35.4 µM (inactive) in assay [18] and 24.9 µM (inactive) in assay [19].

Turning to `CCOC(=O)CCC(NC(=O)OCc1ccccc1)C(=O)NC(CCC(=O)OCC)C(=O)NC(Cc1ccc([N+](=O)[O-])cc1)C(=O)NC(CCC(=O)OCC)C(=O)NC(CCC(=O)OCC)C(=O)OCC` (configuration not stated) (Cbz-E(OEt)E(OEt)[Phe(4-NO2)]E(OEt)E(OEt)-OEt; configuration not given here), the GI50 in assay [1], in assay [3], in [4], in assay [5], in assay [6] and in assay [8] was > 100 µM (inactive) in each case. Further, the GI50 in assay [20], in [10], in [11], in [12], in assay [14] and in assay [15] was > 100 µM (inactive) throughout. The GI50 in assay [16], in [17], in assay [18] and in [19] was > 100 µM (inactive) each time.

For `COC(=O)c1c(OC)cc2cc3c(c(O)c2c1C)C(=O)C1(O)C(=O)C=C(OC)C(OC(=O)CC(C)N)=C1C3=O` (configuration not stated), the GI50 in assay [1] was 4.74 µM (inactive); in assay [2] it was 6.68 µM (inactive); in [3], 7.52 µM (inactive); in assay [4], 8.47 µM (inactive); in assay [5] it was > 100 µM (inactive); in [6], 5.32 µM (inactive). Besides, the GI50 in assay [8] is 7.05 µM (inactive); in assay [20] it was 12.1 µM (inactive); in [9] it was 22.6 µM (inactive); in [10], 87.3 µM (inactive); in [12], 7.69 µM (inactive); in [13], 8.59 µM (inactive). For the same molecule, the GI50 was 15.2 µM (inactive) in assay [14]; > 100 µM (inactive) in assay [16]; 37.7 µM (inactive) in [17]; 20.9 µM (inactive) in [18]; 22.1 µM (inactive) in assay [19].

As to `COc1cc(Cc2cc3c(c(C(=O)O)c2Br)OCO3)cc(OC)c1OC`, the GI50 in assay [1] was 34.6 µM (inactive); in assay [2], > 100 µM (inactive); in assay [3] it was > 100 µM (inactive); in [4], > 100 µM (inactive); in assay [5], 23.8 µM (inactive); in assay [6] it was 56.8 µM (inactive). Further, the GI50 in assay [7] was > 100 µM (inactive); in assay [8], > 100 µM (inactive); in assay [9] it was > 100 µM (inactive); in assay [10], > 100 µM (inactive); in [12] it was > 100 µM (inactive); in assay [13], 29.6 µM (inactive). In addition, the GI50 in assay [14] is > 100 µM (inactive); in assay [15] it was > 100 µM (inactive); in assay [16] it was > 100 µM (inactive); in [17] it was 69.2 µM (inactive); in assay [18] it was > 100 µM (inactive); in assay [19] it was > 100 µM (inactive).

Regarding `COC(=O)CSc1cc(Cl)c(C)cc1S(=O)(=O)Nc1n[nH]c(N)n1`, the GI50 in assay [1], in [2], in assay [3], in [5], in [6] and in assay [7] was > 10 µM (inactive) in each case. Moreover, the GI50 in assay [8], in [20], in assay [9], in assay [10], in [11] and in [12] was > 10 µM (inactive) throughout. Moreover, the GI50 in assay [13], in assay [14], in assay [15], in [16], in assay [17] and in assay [18] was > 10 µM (inactive) in each case. Besides, the GI50 in assay [19] was > 10 µM (inactive).
